# Laboratory results reported in ChEMBL document CHEMBL1147550, “Capped dipeptide phenethylamide inhibitors of the HCV NS3 protease” (Bioorg Med Chem Lett, 2004).
# Target: Genome polyprotein (Hepatitis C virus genotype 1a (isolate 1) (HCV), UniProt P26664)
# Assay: Inhibition of Hepatitis C virus NS3 protease in vitro.
# Chain of Genome polyprotein (P26664 1027-1657 limits assumed): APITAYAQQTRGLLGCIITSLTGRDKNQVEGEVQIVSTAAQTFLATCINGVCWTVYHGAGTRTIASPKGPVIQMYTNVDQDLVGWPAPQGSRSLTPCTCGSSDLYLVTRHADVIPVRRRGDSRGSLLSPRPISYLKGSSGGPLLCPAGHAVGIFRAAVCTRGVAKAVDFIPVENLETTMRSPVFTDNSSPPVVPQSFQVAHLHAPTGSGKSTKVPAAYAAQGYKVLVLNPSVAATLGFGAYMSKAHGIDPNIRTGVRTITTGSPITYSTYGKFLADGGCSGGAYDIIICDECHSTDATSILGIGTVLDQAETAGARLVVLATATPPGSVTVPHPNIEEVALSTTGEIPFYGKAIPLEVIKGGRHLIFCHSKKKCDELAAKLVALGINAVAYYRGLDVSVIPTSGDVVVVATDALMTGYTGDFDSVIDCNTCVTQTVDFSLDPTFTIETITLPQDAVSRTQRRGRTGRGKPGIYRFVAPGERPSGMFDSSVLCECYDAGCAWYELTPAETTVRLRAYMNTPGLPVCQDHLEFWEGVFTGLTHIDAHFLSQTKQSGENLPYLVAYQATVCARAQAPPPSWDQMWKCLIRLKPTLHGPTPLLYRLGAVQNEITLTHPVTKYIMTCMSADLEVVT
row,Compound,IC50
1,O=C(O)c1cc(F)c(CCNC(=O)[C@H](CC(F)F)NC(=O)[C@@H]2C[C@@H](c3ccccc3)CN2C(=O)[C@@H](O)c2ccccc2)c(F)c1,> 100 µM
2,O=C(O)c1cc(F)c(CCNC(=O)[C@H](CC(F)F)NC(=O)[C@@H]2C[C@@H](c3ccccc3)CN2C(=O)[C@@H](O)C2CCCC2)c(F)c1,13 µM
3,CC(C)[C@H](O)C(=O)N1C[C@H](OC2CCCCC2)C[C@H]1C(=O)N[C@@H](CC(F)F)C(=O)NCCc1c(F)cc(C(=O)O)cc1F,32 µM
4,O=C(O)c1cc(F)c(CCNC(=O)[C@H](CC(F)F)NC(=O)[C@@H]2C[C@@H](c3ccccc3)CN2C(=O)CC2CCCC2)c(F)c1,34 µM
5,O=C(O)c1cc(F)c(CCNC(=O)[C@H](CC(F)F)NC(=O)[C@@H]2C[C@@H](c3ccccc3)CN2C(=O)C(O)C2CC2)c(F)c1 (stereo partly specified),> 100 µM
6,O=C(O)c1cc(F)c(CCNC(=O)[C@H](CC(F)F)NC(=O)[C@@H]2C[C@@H](c3ccccc3)CN2C(=O)C(O)Cc2ccccc2)c(F)c1 (stereo partly specified),> 100 µM
7,O=C(O)c1cc(F)c(CCNC(=O)[C@H](CC(F)F)NC(=O)[C@@H]2C[C@@H](c3ccccc3)CN2C(=O)[C@H](O)c2ccccc2)c(F)c1,> 100 µM
8,O=C(O)c1cc(F)c(CCNC(=O)[C@H](CC(F)F)NC(=O)[C@@H]2C[C@@H](c3ccccc3)CN2C(=O)[C@@H](O)C2CCCCC2)c(F)c1,14 µM
9,O=C(O)c1cc(F)c(CCNC(=O)[C@H](CC(F)F)NC(=O)[C@@H]2C[C@@H](c3ccccc3)CN2C(=O)[C@H](O)C2CCCC2)c(F)c1,62 µM

# Further lines, results first:
row,IC50,Compound
1,18 µM,CC(C)[C@H](O)C(=O)N1C[C@H](c2ccccc2)C[C@H]1C(=O)N[C@@H](CC(F)F)C(=O)NCCc1c(F)cc(C(=O)O)cc1F
2,2.4 µM,CC(C)COC(=O)N[C@H](C(=O)N[C@@H](CC(C)C)C(=O)N[C@@H](CC(F)F)C(=O)NCCc1ccc(C(=O)O)cc1Cl)C(C)C
3,58 µM,CC(C)CC(=O)N1C[C@H](c2ccccc2)C[C@H]1C(=O)N[C@@H](CC(F)F)C(=O)NCCc1c(F)cc(C(=O)O)cc1F
4,11 µM,CC(C)[C@H](O)C(=O)N1C[C@H](OCCCc2ccccc2)C[C@H]1C(=O)N[C@@H](CC(F)F)C(=O)NCCc1c(F)cc(C(=O)O)cc1F
5,3 µM,CC(C)C[C@H](NC(=O)[C@H](O)c1ccccc1)C(=O)N[C@@H](CC(F)F)C(=O)C(=O)O
6,50 µM,CCC(CC)C(O)C(=O)N1C[C@H](c2ccccc2)C[C@H]1C(=O)N[C@@H](CC(F)F)C(=O)NCCc1c(F)cc(C(=O)O)cc1F (stereo partly specified)
7,18 µM,CC(C)(C)[C@H](O)C(=O)N1C[C@H](c2ccccc2)C[C@H]1C(=O)N[C@@H](CC(F)F)C(=O)NCCc1c(F)cc(C(=O)O)cc1F
8,> 100 µM,CC(C)[C@H](O)C(=O)N1C[C@H](OCc2ccccc2Cl)C[C@H]1C(=O)N[C@@H](CC(F)F)C(=O)NCCc1c(F)cc(C(=O)O)cc1F
9,0.9 µM,CC(C)COC(=O)N[C@H](C(=O)N1C[C@H](c2ccccc2)C[C@H]1C(=O)N[C@@H](CC(F)F)C(=O)NCCc1c(F)cc(C(=O)O)cc1F)C(C)C
10,27 µM,CC(C)[C@H](O)C(=O)N1C[C@H](OCc2ccccc2)C[C@H]1C(=O)N[C@@H](CC(F)F)C(=O)NCCc1c(F)cc(C(=O)O)cc1F
11,> 100 µM,CC(C)[C@@H](O)C(=O)N1C[C@H](c2ccccc2)C[C@H]1C(=O)N[C@@H](CC(F)F)C(=O)NCCc1c(F)cc(C(=O)O)cc1F
12,12 µM,CC(C)[C@H](O)C(=O)N1C[C@H](OCc2ccc(Br)cc2)C[C@H]1C(=O)N[C@@H](CC(F)F)C(=O)NCCc1c(F)cc(C(=O)O)cc1F
